# Source: patent US10278971B2, “Fluorocyclopentenylcytosine methods of use” (Rexahn Pharmaceuticals, Inc., priority 2015, dated 2019)
# Where two headings read alike, the source gives them in different places.
# How the values were obtained:
# DNMT1 = DNMT1 protein expression by Western Blotting; format: cell-based, human; conditions: for downregulation of DNMT1 protein expression: A549 and SW1573, 5-50 μM
# Method: The mechanism of cell cycle arrest was investigated by measuring cell cycle proteins expression using western blotting. The influence of RX-3117 on protein expression during different treatment conditions was analyzed by western blot. Cells were lysed using cell lysis buffer 1× (Cell Signaling, Danvers, Mass., USA) containing 4% protease inhibitor cocktail (Roche Diagnostics, Mannheim, Germany) on ice for 30 minutes and centrifuged for 10 minutes at 4° C. at 14,000 rpm. The protein containing supernatant was collected and the Bio-Rad assay was performed to determine protein amount as described in Lemos et al., Pharmacogenomics, 12(2):159-70 (2011). The following antibodies were used for protein expression: DNMT1 (Cell Signaling, 1:1000 #5032S), DNMT3A (Cell Signaling 1:1000 #2160S), DNMT3B (Abcam, 1; 1000), Chk2 (Cell Signaling 1:1000 #6334P), Chk1 (Cell Signaling 1:1000), p-CDC25C (Cell Signaling 1:1000 #4901S), Cdk1 (Cell Signaling 1:1000 #9112S), Cdk2 (Cell Signaling 1:1000 #2546S), wee1 (Cell Signaling 1:1000), 5139-γH2A.X (Cell Signaling, 1:1000), β actin (Sigma, 1:10,000), Caspase 9 (Cell Signaling, 1:1000), PARP (Roche 2003, 1:1000), p53 (Cell Signaling, 1:1000, #9282). The antibodies were diluted in 1:1 solution Rockland buffer (Rockland Inc., Philadelphia, Pa., USA) and PBS supplemented with 0.05% Tween® 20. The proteins were separated in 20% SDS-PAGE and transferred to a PVDF membrane. For fluorescent signal secondary antibodies goat anti-mouse InfraRedDye and goat anti-rabbit InfraRedDye were used. The proteins were detected by an Odyssey InfraRed Imager (Li-COR Bioscience, Lincoln, Nebr., USA).
# DNMT1 protein expression was measured by Western Blotting after exposure to RX-3117 for 24 or 48 hr. DNMT1 RNA expression was measured by real-time PCR after 24 and 48 hr exposure to RX-3117. DNMT enzyme activity was measured in isolated nuclei after exposure 1 μM RX-3117 or 5 μM aza-CdR using a DNA methyltransferase assay kit provided by EpiGentek using the ability of a CpG dinding domain to bind to methylated DNA. In A549 cells the effect of 5 μM RX-3117 on overall methylation was measured with a specific antibody against 5-methyl-cytosine. Bands on Western blots were visualized using appropriate InfraRedDye using an Odyssey InfraRed imager.
# A549 = conditions: as reported in Peters et al. 2013; cited from earlier work
# [1] = First-in-human study: pharmacokinetics, safety and tolerability; format: in vivo; conditions: for Cmax / Tmax / half-life / bioavailability: both sexes, human, plasma; for bioavailability: n=3, read-out: absolute bioavailability (F)
# Method: In a first-in-human, open-label, exploratory study, the pharmacokinetics, safety and tolerability of RX-3117 were evaluated. The study duration was 14-15 days (7-day screening period; 3-day treatment period; 4 (+1)-day safety follow-up period). Nine adult male and female subjects with histologically confirmed, solid tumors enrolled in and completed the study. The subjects received RX-3117 (n=3 subjects per dose) as a single oral dose (50 mg or 100 mg) or a single intravenous dose (20 mg).
# PCFT = PCFT mediated transport of radiolabeled MTX; format: cell-based, human; conditions: CEM cells, 24 hr; RX-3117 29.6 μM; DAC positive control
# From the text: In this study, the following cell lines were used: (1) CCRF-CEM cells and its MTX resistant variant CEM-MTX, characterized by a deficiency of the reduced folate carrier (RFC) (Jansen G., et al., JBC 273 (1998) 30189-30198). The PCFT gene in CEM cells is highly methylated. (Gonen N., et al., BBRC 376 (2008) 787-92.); (2) CEM cells cultured in RPMI medium with 10% fetal bovine serum (FBS); and (3) A549 and SW1573 non-small cell lung cancer (NSCLC) and A2780 ovarian cancer cell lines cultured in DMEM medium with 10% FBS.
# MTX transport was measured using radiolabeled MTX in CEM wild type and CEM-MTX cell lines. CEM cells have a high RFC activity. CEM-MTX are completely deficient in RFC-mediated transport. CEM cells have a highly methylated PCFT transporter and a very low PCFT mediated transport (Gonen N., et al., BBRC 376 (2008) 787-92). MTX transport at pH 7.4 is predominantly RFC mediated and less than 2% by PCFT. Folic acid was used to inhibit PCFT mediated transport. […] CEM and CEM-MTX cells were exposed to 29.6 μM RX-3117 and to 0, 19 μM aza-CdR as a positive control. MTX transport was measured after 24 hr to the drugs in a 3 minutes uptake assay using 2 μM [3′,5,′7-3H]-MTX.
# SW1573 = conditions: as reported in Peters et al. 2013; cited from earlier work
structure (smiles),measurement,setting,value
"Nc1ccn([C@@H]2C(F)=C(CO)[C@@H](O)[C@H]2O)c(=O)n1 [RX-3117, 4-amino-1-((1S,4R,5S)-2-fluoro-4,5-dihydroxy-3-hydroxymethyl-cyclopent-2-enyl)-1H-pyrimidin-2-one]",DNMT1 protein expression,"DNMT1; A549, at higher dose (1-75 μM tested)",down regulates
same,downregulation of DNMT1 protein expression,DNMT1; 24 hour exposure,5-20%
same,downregulation of DNMT1 protein expression,DNMT1; 48 hr,> 90%
same,DNMT1 protein expression,"DNMT1; A2780, 1 μM, 24 hr",protein down regulation was already observed
same,IC50,A549,8.3 µM
same,increase of intravenous Cmax over the peak concentrations of the oral doses,[1]; 20 mg intravenous vs 50 and 100 mg oral,~4 fold
same,Cmax,[1]; single intravenous dose 20 mg,1140 ng/mL
same,Tmax,"[1]; single intravenous dose 20 mg, read-out: Tmax",0.25 h
same,Cmax,[1]; single oral dose 50 mg,303 ng/mL
same,half-life,[1]; single oral dose 50 mg,13.9 h
same,bioavailability,[1]; single oral dose 50 mg,55.7%
same,Tmax,"[1]; single oral dose 50 mg, read-out: mean Tmax",2.16 h
same,Cmax,[1]; single oral dose 100 mg,311 ng/mL
same,half-life,[1]; single oral dose 100 mg,20.9 h
same,bioavailability,[1]; single oral dose 100 mg,33.4%
same,Tmax,"[1]; single oral dose 100 mg, read-out: mean Tmax",2.49 h
same,"adverse events (AE, TEAE, SAE)",[1]; single 50 or 100 mg oral or 20 mg intravenous dose,No adverse event
same,safety and tolerability,"[1]; single 50 or 100 mg oral or 20 mg intravenous dose, all subjects",safe and well-tolerated
same,increase of PCFT mediated transport of MTX,PCFT,4 fold
same,IC50,SW1573,13.7 µM
